Laboratory results from patent publication US20210255193A1, “LYSINE REACTIVE PROBES AND USES THEREOF” (The Scripps Research Institute, priority 2017, published 2021).

Assays:
Test in all cases: competitive isoTOP-ABPP
Format in all cases: binding
[1] = molecular target: T1, KPNA2 Importin subunit alpha-2 (Homo sapiens, UniProt P52292); conditions: for isoTOP-ABPP ratio (R) at liganded lysine P52292_K459: sol, 231; for R value (DMSO/fragment) for probe 1 labeling: P52292_K459
T1 construct: isoTOP-ABPP experiments performed in cell lysates (in vitro); endogenous in cells; host or cells: soluble proteome of human cancer cell lines (MDA-MB-231, Ramos, Jurkat)
In short: (§1)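 Readout: isotopic light/heavy MS1 peak-area ratio (R, DMSO heavy over compound light), median across peptides sharing a modified lysine. Lysate received fragment (activated esters 50 μM, guanidinylating agents 100 μM final) or DMSO, then 0.1 mM STP-alkyne probe for 1 h at ambient temperature.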

[2] = molecular target: T2, MAP2K3 Dual specificity mitogen-activated protein kinase (Homo sapiens, UniProt P46734); conditions: for isoTOP-ABPP ratio (R) at liganded lysine P46734_K93: sol, 231; for R value (DMSO/fragment) for probe 1 labeling: P46734_K93
T2 construct: isoTOP-ABPP experiments performed in cell lysates (in vitro); endogenous in cells; host or cells: soluble proteome of human cancer cell lines (MDA-MB-231; Ramos and Jurkat also prepared)
T2 sequence (P46734 1-347): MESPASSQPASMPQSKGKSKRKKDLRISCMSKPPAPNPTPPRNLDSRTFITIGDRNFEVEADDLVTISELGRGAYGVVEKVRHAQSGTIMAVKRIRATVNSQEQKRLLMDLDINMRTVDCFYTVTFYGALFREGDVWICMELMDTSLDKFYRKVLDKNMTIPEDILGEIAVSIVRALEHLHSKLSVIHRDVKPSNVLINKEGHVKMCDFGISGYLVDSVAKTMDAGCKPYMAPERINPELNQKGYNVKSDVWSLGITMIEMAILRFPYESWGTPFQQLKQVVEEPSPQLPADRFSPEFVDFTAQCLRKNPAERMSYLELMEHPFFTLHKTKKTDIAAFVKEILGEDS
In short: as §1

[3] = molecular target: T3, GTPBP3 tRNA modification GTPase GTPBP3, mitochondrial (Homo sapiens, UniProt Q969Y2); conditions: for isoTOP-ABPP ratio (R) at liganded lysine Q969Y2_K492: sol, 231; for R value (DMSO/fragment) for probe 1 labeling: Q969Y2_K492
T3 construct: isoTOP-ABPP experiments performed in cell lysates (in vitro); endogenous in cells; host or cells: soluble proteome of human cancer cell lines (MDA-MB-231; Ramos and Jurkat also prepared)
T3 sequence (Q969Y2 21-492): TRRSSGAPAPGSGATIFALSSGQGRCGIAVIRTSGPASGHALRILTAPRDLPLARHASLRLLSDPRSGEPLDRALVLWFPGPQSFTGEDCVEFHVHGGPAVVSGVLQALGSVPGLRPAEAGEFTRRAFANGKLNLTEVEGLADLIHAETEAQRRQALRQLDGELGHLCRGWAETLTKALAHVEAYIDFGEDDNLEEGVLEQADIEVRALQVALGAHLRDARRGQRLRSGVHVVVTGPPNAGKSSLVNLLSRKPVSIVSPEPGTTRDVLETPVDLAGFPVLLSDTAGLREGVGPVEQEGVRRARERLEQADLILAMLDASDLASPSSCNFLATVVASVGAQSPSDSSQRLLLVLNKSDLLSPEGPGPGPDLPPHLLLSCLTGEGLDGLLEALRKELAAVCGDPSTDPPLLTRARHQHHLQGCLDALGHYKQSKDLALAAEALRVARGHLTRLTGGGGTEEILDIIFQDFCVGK
In short: as §1

O=C(Oc1ccc([N+](=O)[O-])cc1[N+](=O)[O-])c1ccc(-c2ccccc2)cc1 [fragment 37, 2,4-Dinitrophenyl [1,1′-biphenyl]-4-carboxylate]
isoTOP-ABPP ratio (R) at liganded lysine P52292_K459 ([1]; 50 uM, in vitro): 0.9
isoTOP-ABPP ratio (R) at liganded lysine P46734_K93 ([2]; 50 uM, in vitro): 0.7
isoTOP-ABPP ratio (R) at liganded lysine Q969Y2_K492 ([3]; 50 uM, in vitro): 1.2

O=C(CCc1ccc2c(c1)OCO2)Oc1ccc([N+](=O)[O-])cc1[N+](=O)[O-] [fragment 45, 2,4-Dinitrophenyl 3-(benzo[d][1,3]dioxol-5-yl)propanoate]
isoTOP-ABPP ratio, lysine P52292_K459 ([1]; 50 uM_231_sol_in vitro): 1.7
isoTOP-ABPP ratio, lysine P46734_K93 ([2]; 50 uM_231_sol_in vitro): 0.9
isoTOP-ABPP ratio, lysine Q969Y2_K492 ([3]; 50 uM_231_sol_in vitro): 1.4

O=C(Oc1c(F)c(F)c(F)c(F)c1F)C(c1ccccc1)c1ccccc1 [fragment 20, Pentafluorophenyl 2,2-diphenylacetate]
R value (DMSO/fragment) for probe 1 labeling ([1]; 50 uM, 231 sol, in vitro): 5.5
R value (DMSO/fragment) for probe 1 labeling ([2]; 50 uM, 231 sol, in vitro): 0.9
R value (DMSO/fragment) for probe 1 labeling ([3]; 50 uM, 231 sol, in vitro): 1.1

O=C(Oc1c(F)c(F)c(F)c(F)c1F)c1cc(C(F)(F)F)cc(C(F)(F)F)c1 [fragment 21, Pentafluorophenyl 3,5-bis(trifluoromethyl)benzoate]
R value (DMSO/fragment) for probe 1 labeling ([1]; 50 uM, 231 sol, in vitro): 1.0
R value (DMSO/fragment) for probe 1 labeling ([2]; 50 uM, 231 sol, in vitro): 0.9
R value (DMSO/fragment) for probe 1 labeling ([3]; 50 uM, 231 sol, in vitro): 1.3

Cn1cc(CC(=O)Oc2ccc([N+](=O)[O-])cc2[N+](=O)[O-])c2ccccc21 [fragment 32, 2,4-Dinitrophenyl 2-(1-methyl-1H-indol-3-yl)acetate]
isoTOP-ABPP reactivity ratio at lysine P52292_K459 ([1]; 50 uM, 231 sol, in vitro): 1.8
isoTOP-ABPP reactivity ratio at lysine P46734_K93 ([2]; 50 uM, 231 sol, in vitro): 1.4
isoTOP-ABPP reactivity ratio at lysine Q969Y2_K492 ([3]; 50 uM, 231 sol, in vitro): 1.8

O=C(Oc1ccc([N+](=O)[O-])cc1[N+](=O)[O-])c1ccc(Oc2ccccc2)cc1 [fragment 39, 2,4-Dinitrophenyl 4-phenoxybenzoate]
isoTOP-ABPP ratio (R) at liganded lysine P52292_K459 ([1]; 50 uM, in vitro): 1.0
isoTOP-ABPP ratio (R) at liganded lysine P46734_K93 ([2]; 50 uM, in vitro): 0.8
isoTOP-ABPP ratio (R) at liganded lysine Q969Y2_K492 ([3]; 50 uM, in vitro): 1.2
